Test results from article PMC3448056, “2-Benzamido-N-(1H-benzo[d]imidazol-2-yl)thiazole-4-carboxamide derivatives as potent inhibitors of CK1δ/ε” (Amino Acids, 2012).
Like-named read-outs stand apart in the source and are kept apart here.

Tests used:
GST-rat CK1δ = target: T1, GST-rat CK1δ (Rattus norvegicus, UniProt Q06486); test: In vitro kinase assay, GST-rat CK1δ; assay type: biochemical; details: for GST-wt CK1δ activity in the presence of inhibitor: inhibitor at its determined IC50 concentration (Fig. 7)
T1 construct: made in house; host or cells: bacteria (pGEX-2T)
T1 sequence (Q06486 whole entry): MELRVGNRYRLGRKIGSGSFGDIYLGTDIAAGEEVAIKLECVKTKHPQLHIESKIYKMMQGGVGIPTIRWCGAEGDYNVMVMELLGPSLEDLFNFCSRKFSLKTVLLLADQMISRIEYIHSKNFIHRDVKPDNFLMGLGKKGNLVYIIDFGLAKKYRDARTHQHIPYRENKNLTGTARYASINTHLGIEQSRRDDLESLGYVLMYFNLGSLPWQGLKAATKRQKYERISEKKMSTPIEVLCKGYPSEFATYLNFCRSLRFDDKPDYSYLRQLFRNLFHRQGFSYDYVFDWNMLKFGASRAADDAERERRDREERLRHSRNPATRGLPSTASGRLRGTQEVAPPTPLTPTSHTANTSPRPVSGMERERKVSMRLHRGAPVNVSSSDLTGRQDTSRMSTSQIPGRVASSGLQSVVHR

GST-mouse CK1δTV2 = target: T2, GST-mouse CK1δTV2 (Mus musculus, UniProt Q9DC28); test: In vitro kinase assay, GST-mouse CK1δTV2; assay type: biochemical
T2 construct: made in house; host or cells: bacteria (pGEX-2T)
T2 sequence (Q9DC28 1-409 isoform Q9DC28-2): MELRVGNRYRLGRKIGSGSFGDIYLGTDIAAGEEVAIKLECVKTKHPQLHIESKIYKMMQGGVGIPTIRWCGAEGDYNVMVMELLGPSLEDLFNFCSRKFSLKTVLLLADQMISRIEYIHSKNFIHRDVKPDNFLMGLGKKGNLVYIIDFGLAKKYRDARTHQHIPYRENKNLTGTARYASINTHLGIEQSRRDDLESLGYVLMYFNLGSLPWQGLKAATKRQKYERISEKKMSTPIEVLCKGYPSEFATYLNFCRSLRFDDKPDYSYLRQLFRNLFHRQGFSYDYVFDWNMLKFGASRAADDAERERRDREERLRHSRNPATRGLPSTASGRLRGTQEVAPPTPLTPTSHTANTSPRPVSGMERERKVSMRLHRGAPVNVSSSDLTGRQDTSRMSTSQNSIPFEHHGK
From the text: CK1δTV1 and 2 (transcription variants 1 and 2) were PCR amplified from mouse cDNA (5′-primer TV1 and 2: 5′-[…]-3′, 3′-primer TV1: 5′-[…]-3′, 3′-primer TV2: 5′-[…]-3′) and cloned into pcDNA3.1/V5-His© TOPO® TA cloning vector (Invitrogen, Karlsruhe, Germany) before being subcloned into pGEX-2T expression vector via BamHI to generate plasmids pGEX-2T-mouse CK1δTV1 (FP1170) and pGEX-2T-mouse CK1δTV2 (FP1171).
Expression and purification of the GST-fusion proteins GST-mouse p53^1–64 (FP267), GST-rat CK1δ (FP449), GST-rat CK1δ^M82F (FP1153), GST-mouse CK1δTV1 (FP1170), and GST-mouse CK1δTV2 (FP1171) was carried out as described elsewhere (Wolff et al. [2005]). Expression of fusion proteins FP1170 and 1171 was either performed at 37°C for 2 h, or at 15°C for 14 h. FP449 and FP1153 were always expressed at 15°C for 14 h.
In vitro kinase assays were carried out in the presence of various potential inhibitors of CK1δ at an ATP concentration of 0.01 mM and dimethyl sulfoxide (DMSO) solvent control as described previously (Knippschild et al. [1996]). Where indicated higher ATP concentrations (0.05, 0.1, 0.25 and 0.5 mM) were used. The fusion protein GST-mouse p53^1−64 (FP267) was used as substrate. Recombinant CK1δ kinase domain (CK1δkd, NEB, Frankfurt am Main, Germany), GST-rat CK1δ (FP449), GST-rat CK1δ^M82F (FP1153), GST-mouse CK1δTV1, GST-mouse CK1δTV2 and recombinant human CK1ε (Invitrogen, Karlsruhe, Germany) were used as sources of enzyme. Phosphorylated proteins were separated by SDS-PAGE and the protein bands were visualized on dried gels by autoradiography. The phosphorylated protein bands were excised and quantified by Cherenkov counting.

Frwt648 cells = test: Flow cytometry cell cycle analysis; assay type: cell-based; details: Frwt648, 2 and 4 μM, 48 h; range stated jointly for Frwt648 and mKSA and compounds 5 and 6
Experimental: (§1) Frwt648 cells [generated by SV40-transformation of F111 cells; (Hinzpeter and Deppert [1987])] and mKSA cells [SV40-transformed Balb/c fibroblasts; (Kit et al. [1969])] were grown in Dulbecco’s modified Eagle’s medium (DMEM) supplemented with 5% fetal calf serum (FCS; Biochrom, Berlin, Germany). The fibrosarcoma cell line HT1080 (Rasheed et al. [1974]) was grown in DMEM containing 10% FCS and 2 mM glutamine while both the prostate cancer cell line DU-145 (Stone et al. [1978]) and the ovary tissue cancer cell line OVCAR-3 (Hamilton et al. [1983]) were maintained in RPMI-1640 supplemented with 10% FCS. The pancreatic cancer cell line Colo357 (Morgan et al. [1980]) was grown in DMEM/RPMI (1:1) and the colon adenocarcinoma cell line SW480 (Leibovitz et al. [1976]) in Leibovitz L-15 medium, both containing 10% FCS and 2 mM glutamine. All media were supplemented with 100 U/ml penicillin and 100 μg/ml streptomycin (Gibco, Karlsruhe, Germany) and all cell lines were grown at 37°C in a humidified 5% carbon dioxide atmosphere.
Subconfluent Frwt648, mKSA, Colo357, OVCAR-3, HT1080, DU-145 and SW480 cells were treated with 2 or 4 μM of compounds 5 or 6 for 48 h. Untreated and DMSO treated cells served as control. Cells were harvested, washed once with phosphate-buffered saline (PBS), and prepared for cell cycle analysis using the “Cycle Test Plus Kit” (BD, San Jose, USA). […]

Colo357 cells = test: Flow cytometry cell cycle analysis; assay type: cell-based, human; details: Colo357, 2 or 4 μM, 48 h
Experimental: as §1
(§2) Subconfluent Frwt648, mKSA, Colo357, OVCAR-3, HT1080, DU-145 and SW480 cells were treated with 2 or 4 μM of compounds 5 or 6 for 48 h. Untreated and DMSO treated cells served as control. Cells were harvested, washed once with phosphate-buffered saline (PBS), and prepared for cell cycle analysis using the “Cycle Test Plus Kit” (BD, San Jose, USA). Cell cycle profiles were obtained using a FACScan flow cytometer and CellQuest software (BD Biosciences, San Jose, USA).

DU-145 cells = test: Flow cytometry cell cycle analysis; assay type: cell-based, human; details: 48 h (data not shown); for dead cells: DU-145, 2 or 4 μM
Experimental: as §1, §2

HT1080 cells = test: Flow cytometry cell cycle analysis; assay type: cell-based, human; details: HT1080, 2 or 4 μM, 48 h (data not shown)
Experimental: as §1, §2

OVCAR-3 cells = test: Flow cytometry cell cycle analysis; assay type: cell-based, human; details: 48 h
Experimental: as §1, §2

SW480 cells = test: Flow cytometry cell cycle analysis; assay type: cell-based, human; details: SW480, 2 or 4 μM, 48 h (data not shown)
Experimental: as §1, §2

CSNK1E = target: T3, CSNK1E (Homo sapiens, UniProt P49674); test: KINOMEscan selectivity profiling; assay type: binding; details: remaining relative to controls, read-out: %Ctrl @ 10 μM (CSNK1E)
T3 construct: purchased Ambit Biosciences Cooperation, San Diego, USA (KINOMEscan)
T3 sequence (P49674 whole entry): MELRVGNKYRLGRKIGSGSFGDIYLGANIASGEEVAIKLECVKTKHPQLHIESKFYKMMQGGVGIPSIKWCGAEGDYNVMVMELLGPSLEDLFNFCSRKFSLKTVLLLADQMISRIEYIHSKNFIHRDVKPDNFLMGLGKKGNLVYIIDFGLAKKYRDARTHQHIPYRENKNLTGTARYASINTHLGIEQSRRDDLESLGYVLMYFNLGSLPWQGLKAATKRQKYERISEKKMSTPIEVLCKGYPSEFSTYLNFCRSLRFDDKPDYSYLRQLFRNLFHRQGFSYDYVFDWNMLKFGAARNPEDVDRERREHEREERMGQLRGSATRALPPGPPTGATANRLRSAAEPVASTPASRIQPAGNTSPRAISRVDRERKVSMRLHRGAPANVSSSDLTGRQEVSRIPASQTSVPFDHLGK
Experimental: (§3) KINOMEscan™ was performed to determine binding constants of coumpound 5 to 442 eukaryotic kinases by Ambit Biosciences Cooperation, San Diego, USA.

DYRK2 = target: T4, DYRK2 (Homo sapiens, UniProt Q92630); test: KINOMEscan selectivity profiling; assay type: binding; details: remaining relative to controls, read-out: %Ctrl @ 10 μM (DYRK2)
T4 construct: purchased Ambit Biosciences Cooperation, San Diego, USA (KINOMEscan)
T4 sequence (Q92630 whole entry): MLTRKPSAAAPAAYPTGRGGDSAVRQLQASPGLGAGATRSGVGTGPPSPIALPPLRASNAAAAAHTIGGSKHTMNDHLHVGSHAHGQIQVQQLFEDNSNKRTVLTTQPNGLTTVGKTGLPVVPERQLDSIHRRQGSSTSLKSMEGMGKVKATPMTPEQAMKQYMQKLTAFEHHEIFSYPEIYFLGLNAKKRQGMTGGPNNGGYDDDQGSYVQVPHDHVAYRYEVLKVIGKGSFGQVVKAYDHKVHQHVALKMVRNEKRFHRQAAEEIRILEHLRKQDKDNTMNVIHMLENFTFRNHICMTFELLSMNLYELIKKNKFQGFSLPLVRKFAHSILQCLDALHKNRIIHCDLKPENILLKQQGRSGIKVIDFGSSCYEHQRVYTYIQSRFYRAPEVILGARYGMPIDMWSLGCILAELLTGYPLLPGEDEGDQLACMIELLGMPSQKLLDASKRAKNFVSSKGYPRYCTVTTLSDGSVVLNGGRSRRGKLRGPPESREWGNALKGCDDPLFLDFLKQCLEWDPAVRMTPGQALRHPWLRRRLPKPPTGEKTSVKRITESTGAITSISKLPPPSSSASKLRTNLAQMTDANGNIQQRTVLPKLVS
Experimental: as §3

[1] = 0.01 mM ATP, substrate GST-mouse p53^1-64, mean ± SD, read-out: IC50 (μM) GST-CK1δ TV2

| IC50 (GST-rat CK1δ; 0.01 mM ATP, substrate GST-mouse p53^1-64, mean ± SD) [µM] | GST-wt CK1δ activity in the presence of inhibitor (GST-rat CK1δ) | IC50 (GST-mouse CK1δTV2; [1]) [µM] | higher affinity towards CK1δ than to CK1ε (GST-rat CK1δ; ratio of IC50 values CK1ε / CK1δ) | IC50 (GST-mouse CK1δTV2; IC50 CK1δTV2, 2 h, enzyme induced for 2 h at 37°C) [µM] | IC50 (GST-mouse CK1δTV2; enzyme induced for 14 h at 15°C, read-out: IC50 CK1δTV2, 14 h) [µM] | remaining binding at 10 µM (CSNK1E) [%] | remaining binding at 10 µM (DYRK2) [%] | Structure (SMILES) | dead cells (Frwt648 cells) | effect on cell cycle distribution (Colo357 cells) | dead cells (DU-145 cells) [%] | dead cells (HT1080 cells) [%] | cells died upon treatment (OVCAR-3 cells; OVCAR-3, 4 μM) [%] | dead cells (SW480 cells) [%] | susceptibility of DU-145 to treatment (DU-145 cells; 2 or 4 μM) | effect on cell cycle distribution (OVCAR-3 cells; OVCAR-3, 2 or 4 μM) |
| --- | --- | --- | --- | --- | --- | --- | --- | --- | --- | --- | --- | --- | --- | --- | --- | --- |
| 0.042 ± 0.05 | clearly decreased | 0.055 ± 0.02 | – | – | – | – | – | O=C(Nc1nc2cc(Cl)c(F)cc2[nH]1)c1csc(NC(=O)c2ccccc2OC(F)(F)F)n1 [Compound 6, N-(5-Chloro-6-fluoro-1H-benzo[d]imidazol-2-yl)-2-(2-(trifluoromethoxy)benzamido)thiazole-4-carboxamide] | 35–98% | more cells appeared to be in the G1 phase | ≤ 20 | ≤ 20 | 39 | ≤ 20 | – | – |
| – | clearly decreased | 0.042 ± 0.02 | fivefold | 0.064 | 0.043 | 0.35 | 17 | O=C(Nc1nc2ccc(C(F)(F)F)cc2[nH]1)c1csc(NC(=O)c2ccccc2OC(F)(F)F)n1 [Compound 5, 2-(2-(Trifluoromethoxy)benzamido)-N-(6-(trifluoromethyl)-1H-benzo[d]imidazol-2-yl)thiazole-4-carboxamide] | 35–98% | more cells appeared to be in the G1 phase | ≤ 20 | ≤ 20 | – | ≤ 20 | unsusceptible | slight increase of cells in the G2 phase |
